{"source": "patent US20230414732A1", "about": "“COMPOSITIONS OF EMBEDDED EPITOPE RANDOM PEPTIDES (EERP) FOR TREATMENT OF IMMUNE-MEDIATED CONDITIONS, AND METHODS OF USE” (PALENA THERAPEUTICS, INC., priority 2020, published 2023)", "key": {"[1]": {"tested_on": "MOG-induced EAE in C57B1/6 female mice", "assay": "Prophylactic treatment of MOG35-55-induced EAE, a mouse model of MS", "type": "in vivo", "conditions": "for Incidence of EAE: 500 μg single dose co-administered with MOG 35-55 in CFA, scored Day 7 to Day 28", "source_text": "FIG. 2 is a graph showing prophylactic treatment of MOG-induced EAE in mice (an animal model for multiple sclerosis (MS)) using an EERP according to the present invention. EAE was induced in C57B1/6 female mice at 10 weeks of age by MOG35-55 (Control; depicted as diamonds) and treated prophylactically by co-administration of Glatopa (depicted as triangles), PT-001 (YFAK random copolymer, depicted as open squares), or PT-002 (EERP consisting of linear random polypeptide YFAK with the peptide AYKAAA embedded in it; depicted as cross) at 500 μg/dose each. Mice (12 per treatment group) were monitored for signs of disease for 28 days post immunization. Numbers on the ordinate represent mean clinical score of clinical symptoms monitored for the days shown on the abscissa.\nFIG. 3 is a graph showing prophylactic treatment of MOG-induced EAE in mice using two different doses of an EERP according to the present invention. […] Mice (10 per treatment group) were monitored for signs of disease for 28 days post immunization. Numbers on the ordinate represent mean clinical score of clinical symptoms monitored for the days shown on the abscissa.\nThe EERP of the invention is further tested in vivo in a prophylactic model of MS, EAE, which is induced in female mice of C57B1/6J strain by MOG 35-55 encephalitogenic peptide co-administered with the EERP in Complete Freund's Adjuvant. […] Disease severity is based on clinical observations and is assessed on the scale from 0 to 5. […]\nProphylactic treatment of EAE, a mouse model of MS. […] Mice (12 per treatment group) were monitored daily in a blind fashion starting from Day 7 for signs of disease for 28 days post immunization. […]\nProphylactic treatment of EAE, a mouse model of MS, by 2 different doses of EERP. […] Mice (10 per treatment group) were monitored daily in a blind fashion starting from Day 7 for signs of disease for 28 days post immunization. […]"}, "[2]": {"tested_on": "LPS-stimulated human monocytic cell line THP-1", "assay": "Inhibition of pro-inflammatory cytokine secretion by LPS-stimulated THP-1 cells (ELISA)", "type": "cell-based", "conditions": "1.5 hr pre-incubation, LPS 1 μg/mL 24 hr", "experimental": "Cell-based assays. Human monocytic cell line THP-1 (ATCC, Manassas, VA) was cultured in RPMI media supplemented with 10% fetal bovine serum (FBS) and antibiotics penicillin/streptomycin in a 37° C. 5% CO 2 incubator. Cells were plated at 0.25×10^6 cells/well in a 24-well cell culture plate and pre-incubated for 1.5 hr with Glatopa, PT-001 or PT-002 at the final concentration 0.1 μg/mL or 10 μg/mL each, followed by addition of lipopolysaccharide (LPS) at the final concentration of 1 μg/mL and incubation for 24 hr in a 37° C. 5% CO2 incubator. Plates were centrifuged and supernatants (100 μL) were tested for levels of pro-inflammatory cytokines IL-1β, IL-6 and TNF-α using commercial ELISA kits (R&D System for IL-1β, BioLegend for IL-6 and TNF-α). […] Percent inhibition is calculated as 100-(cytokine concentration in presence of inhibitor/cytokine concentration without inhibitor*100)."}, "[3]": {"tested_on": "relapsing forms of MS", "conditions": "cited from earlier work"}, "[4]": {"tested_on": "experimental allergic encephalomyelitis (EAE)", "conditions": "mouse model for multiple sclerosis; cited from earlier work"}}}
{"compound": "C[N+]1(C)CCC(OC(=O)C(O)(c2ccccc2)C2CCCC2)C1", "note": "(centres unmarked) [PT-001]", "values": [{"measurement": "Incidence of EAE", "setting": "[1]", "result": 0, "unit": "%"}, {"measurement": "Signs of disease (clinical score)", "setting": "[1]; Example 2: 500 μg/dose, single dose in immunization emulsion, subcutaneous, 28 days post immunization", "result": "did not exhibit any signs of disease"}, {"measurement": "Percent inhibition (%) IL-1b", "setting": "[2]; 0.1 μg/mL compound", "result": 21, "unit": "%"}, {"measurement": "Percent inhibition (%) IL-6", "setting": "[2]; 0.1 μg/mL compound", "result": "−8", "unit": "%"}, {"measurement": "Percent inhibition (%) TNF-a", "setting": "[2]; 0.1 μg/mL compound", "result": "−5", "unit": "%"}, {"measurement": "Percent inhibition (%) IL-1b", "setting": "[2]; 10 μg/mL compound", "result": 77, "unit": "%"}, {"measurement": "Percent inhibition (%) IL-6", "setting": "[2]; 10 μg/mL compound", "result": 84, "unit": "%"}, {"measurement": "Percent inhibition (%) TNF-a", "setting": "[2]; 10 μg/mL compound", "result": 34, "unit": "%"}]}
{"compound": "glatiramer acetate [Glatopa]", "values": [{"measurement": "Incidence of EAE", "setting": "[1]", "result": 67, "unit": "%"}, {"measurement": "Percent inhibition (%) IL-1b", "setting": "[2]; 0.1 μg/mL compound", "result": 22, "unit": "%"}, {"measurement": "Percent inhibition (%) IL-6", "setting": "[2]; 0.1 μg/mL compound", "result": "−10", "unit": "%"}, {"measurement": "Percent inhibition (%) TNF-a", "setting": "[2]; 0.1 μg/mL compound", "result": "−162", "unit": "%"}, {"measurement": "Percent inhibition (%) IL-1b", "setting": "[2]; 10 μg/mL compound", "result": 42, "unit": "%"}, {"measurement": "Percent inhibition (%) IL-6", "setting": "[2]; 10 μg/mL compound", "result": "−21", "unit": "%"}, {"measurement": "Percent inhibition (%) TNF-a", "setting": "[2]; 10 μg/mL compound", "result": "−37", "unit": "%"}]}
{"compound": "poly (Y, E, A, K) [Cop 1]", "values": [{"measurement": "Reduction in relapses", "setting": "[3]", "result": "about 30%"}, {"measurement": "Suppression of EAE", "setting": "[4]", "result": "capable of suppressing experimental allergic encephalomyelitis"}]}
